The results in this text go back to patent US20210069108A1, “METHODS FOR PREVENTION AND TREATMENT OF PRESSURE ULCERS CAUSED BY ISCHEMIA USING CONTACT VASODILATORS” (priority 2018, published 2021).

The assay has as its system pressure ulcer. Description: topical composition applied to one pressure ulcer of a patient, another pressure ulcer left untreated. To be noted: patient diagnosed with pressure ulcers. The format is in vivo. The source says: A patient is diagnosed with pressure ulcers. A topical composition comprising the calcium channel blocker nifedipine is applied to one pressure ulcer while another pressure ulcer is left untreated. […] A patient is diagnosed with pressure ulcers. A topical composition comprising the ACE inhibitor enalapril is applied to one pressure ulcer while another pressure ulcer is left untreated. […] A patient is diagnosed with pressure ulcers. A topical composition comprising the angiotensin receptor blocker losartan is applied to one pressure ulcer while another pressure ulcer is left untreated.

In the case of `CCOC(=O)[C@H](CCc1ccccc1)N[C@@H](C)C(=O)N1CCC[C@H]1C(=O)O` [enalapril], the “healing of the treated pressure ulcer compared with the untreated pressure ulcer” value was “heal faster than the untreated pressure ulcer”.
The result for `CCCCc1nc(Cl)c(CO)n1Cc1ccc(-c2ccccc2-c2nn[nH]n2)cc1` [losartan] reads “heal faster than the untreated pressure ulcer”.
